{"source": "patent US8604280B2", "about": "“Glyphosate tolerant perennial ryegrass named ‘replay’” (J.R. Simplot Company, priority 2009, dated 2013)", "system": "perennial ryegrass 96-3047", "test": "Glyphosate applied at termination of the Maryland turf trial, plot survival", "type": "in vivo, Lolium perenne L.", "settings": "glyphosate at 2-quarts per acre; plot 96-3047, Maryland trial, 1999; only plot in the trial not killed", "description": "‘Replay’ was developed from a greenhouse cross made in 1992 of perennial ryegrass ‘APM’ (registered, Reg. No. CV-185, PI 565096) pollinated by perennial ryegrass ‘Birdie II’ (registered, Reg. No. 133, PI 537452) in Post Falls, Id. Progeny of this cross was planted in a 1992 spaced-plant nursery in Post Falls, Id., and designated as 92-0226. An open-pollinated selection from this population, designated as 93-0736, was harvested and planted in company turf trials in Post Falls, Id., and Poolesville, Md., in 1993. In 1995, plugs of 93-0736 were pulled from the Maryland plot based on the desirable characteristics of dark green color and turf performance, and then planted in a spaced-plant nursery in Post Falls, Id. In 1996, the perennial ryegrass 96-3047 was selected from this population and planted in company turf trials in both Post Falls, Id., and Poolesville, Md.\nIn 1999, during the termination of the Maryland trial, 96-3047 was the only plot in the trial that was not killed when glyphosate at the rate of 2-quarts per acre was applied. Survival in the plot was estimated at 30% and plugs were pulled, coded as 99-0089, and 200 plants of 99-0089 were planted in an isolation block in the 1999 Post Falls, Id. nursery.", "data": [{"smiles": "O=C(O)CNCP(=O)(O)O", "note": "[glyphosate, N-(phosphonomethyl) glycine]", "values": [{"measurement": "Survival in the plot", "value": "~30", "unit": "%"}]}]}
